# Test results as given in ChEMBL document CHEMBL3102856, “The marine cyanobacterial metabolite gallinamide A is a potent and selective inhibitor of human cathepsin L” (J Nat Prod, 2014).
# Calls of active or inactive are those of the source. No cut-off for these calls is given here.
# Tests used:
# Procathepsin L [1] = target: T1, Procathepsin L (Homo sapiens, UniProt P07711); assay: Irreversible inhibition of recombinant human Cathepsin L using Z-Phe-Arg-aminomethylcoumarin as substrate assessed as residual activity at 10 fold IC50 preincubated for 30 mins followed by 100 fold dilution measured for 2 hrs by fluorescence assay
# Target sequence in this assay (P07711 114-333 limits assumed): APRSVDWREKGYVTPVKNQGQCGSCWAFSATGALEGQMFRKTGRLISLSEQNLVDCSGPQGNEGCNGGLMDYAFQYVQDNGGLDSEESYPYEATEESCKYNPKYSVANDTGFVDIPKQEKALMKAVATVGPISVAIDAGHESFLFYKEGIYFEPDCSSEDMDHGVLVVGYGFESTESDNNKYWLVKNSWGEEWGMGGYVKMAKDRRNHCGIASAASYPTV
# Procathepsin L [2] = target: T1, Procathepsin L; assay: Irreversible inhibition of recombinant human cathepsin L using Z-Phe-Arg-aminomethylcoumarin as substrate
# Target sequence in this assay (P07711 whole entry): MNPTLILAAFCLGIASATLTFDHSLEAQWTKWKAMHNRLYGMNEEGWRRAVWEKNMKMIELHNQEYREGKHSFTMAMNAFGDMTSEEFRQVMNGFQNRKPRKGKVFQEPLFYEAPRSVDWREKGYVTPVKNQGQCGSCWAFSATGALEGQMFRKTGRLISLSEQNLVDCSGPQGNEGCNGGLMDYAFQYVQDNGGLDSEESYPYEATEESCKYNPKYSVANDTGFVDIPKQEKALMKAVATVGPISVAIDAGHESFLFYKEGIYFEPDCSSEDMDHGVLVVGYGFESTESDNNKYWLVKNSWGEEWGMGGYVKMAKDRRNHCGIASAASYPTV
# Homo sapiens [3] = species: Homo sapiens; assay: Selectivity index, ratio of IC50 for human Cathepsin B to IC50 for recombinant human Cathepsin L after 30 mins using Z-Phe-Arg-aminomethylcoumarin as substrate preincubated for 30 mins followed by substrate addition
# Homo sapiens [4] = species: Homo sapiens; assay: Selectivity index, ratio of IC50 for human Cathepsin B to IC50 for recombinant human Cathepsin L using Z-Phe-Arg-aminomethylcoumarin as substrate
# Homo sapiens [5] = species: Homo sapiens; assay: Selectivity index, ratio of IC50 for human Cathepsin V to IC50 for recombinant human Cathepsin L using Z-Phe-Arg-aminomethylcoumarin as substrate preincubated for 30 mins followed by substrate addition
# Homo sapiens [6] = species: Homo sapiens; assay: Selectivity index, ratio of IC50 for human Cathepsin V to IC50 for recombinant human Cathepsin L using Z-Phe-Arg-aminomethylcoumarin as substrate
# Pro-cathepsin H [7] = target: T2, Pro-cathepsin H (Homo sapiens, UniProt P09668); assay: Inhibition of human Cathepsin H using Arg-aminomethylcoumarin as substrate preincubated for 30 mins followed by substrate addition
# T2 sequence (P09668 whole entry): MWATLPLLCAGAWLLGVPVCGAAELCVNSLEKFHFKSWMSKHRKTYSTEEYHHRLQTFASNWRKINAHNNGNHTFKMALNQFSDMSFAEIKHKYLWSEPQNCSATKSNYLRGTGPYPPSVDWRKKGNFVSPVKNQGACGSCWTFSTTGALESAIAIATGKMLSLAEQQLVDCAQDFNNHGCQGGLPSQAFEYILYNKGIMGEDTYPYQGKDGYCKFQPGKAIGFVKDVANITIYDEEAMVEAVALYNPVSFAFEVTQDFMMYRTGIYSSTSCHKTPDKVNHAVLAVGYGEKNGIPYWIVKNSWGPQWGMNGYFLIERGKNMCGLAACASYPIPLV
# Pro-cathepsin H [8] = target: T2, Pro-cathepsin H; assay: Inhibition of human Cathepsin H using Arg-aminomethylcoumarin as substrate
# Cathepsin B [9] = target: T3, Cathepsin B (Homo sapiens, UniProt P07858); assay: Inhibition of human Cathepsin B using Z-Phe-Arg-aminomethylcoumarin as substrate preincubated for 30 mins followed by substrate addition
# Cathepsin B [10] = target: T3, Cathepsin B; assay: Inhibition of human Cathepsin B using Z-Phe-Arg-aminomethylcoumarin as substrate
# Cathepsin L2 [11] = target: T4, Cathepsin L2 (Homo sapiens, UniProt O60911); assay: Inhibition of human Cathepsin V using Z-Phe-Arg-aminomethylcoumarin as substrate preincubated for 30 mins followed by substrate addition
# T4 sequence (O60911 whole entry): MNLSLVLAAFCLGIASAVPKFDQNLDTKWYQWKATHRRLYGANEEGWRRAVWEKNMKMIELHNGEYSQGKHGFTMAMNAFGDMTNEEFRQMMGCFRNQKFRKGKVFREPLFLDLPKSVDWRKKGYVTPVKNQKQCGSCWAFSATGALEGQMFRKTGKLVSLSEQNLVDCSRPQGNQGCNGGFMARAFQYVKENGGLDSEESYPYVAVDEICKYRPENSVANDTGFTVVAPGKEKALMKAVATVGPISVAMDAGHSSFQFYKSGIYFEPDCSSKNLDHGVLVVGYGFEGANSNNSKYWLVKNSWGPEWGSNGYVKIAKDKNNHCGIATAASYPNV
# Cathepsin L2 [12] = target: T4, Cathepsin L2; assay: Inhibition of human Cathepsin V using Z-Phe-Arg-aminomethylcoumarin as substrate
# Procathepsin L [13] = target: T1, Procathepsin L; assay: Inhibition of recombinant human Cathepsin L using Z-Phe-Arg-aminomethylcoumarin as substrate preincubated for 30 mins followed by substrate addition
# Target sequence in this assay (P07711 whole entry): as the sequence (P07711 whole entry) above
# Procathepsin L [14] = target: T1, Procathepsin L; assay: Inhibition of recombinant human Cathepsin L using Z-Phe-Arg-aminomethylcoumarin as substrate
# Procathepsin L [15] = target: T1, Procathepsin L; assay: Inhibition of recombinant human Cathepsin L assessed as inhibition of activity-based probe DCG-04 labelling preincubated for 30 mins followed by DCG-04 addition measured after 30 mins
# Target sequence in this assay (P07711 114-333 limits assumed): as the sequence (P07711 114-333 limits assumed) above
smiles,measurement,setting,value
CC[C@H](C)[C@@H](C(=O)O[C@@H](CC(C)C)C(=O)N[C@@H](CC(C)C)C(=O)N[C@@H](C)/C=C/C(=O)N1C(=O)C=C(OC)[C@@H]1C)N(C)C [GALLINAMIDE A],inhibition,Procathepsin L [1],Active
same,Ki,Procathepsin L [2],9000 M⁻¹ s⁻¹
same,Ratio IC50,Homo sapiens [3],320
same,Ratio IC50,Homo sapiens [4],91
same,Ratio IC50,Homo sapiens [5],28
same,Ratio IC50,Homo sapiens [6],10
same,IC50,Pro-cathepsin H [7],> 30000 nM
same,IC50,Pro-cathepsin H [8],> 30000 nM
same,IC50,Cathepsin B [9],1700 nM
same,IC50,Cathepsin B [10],4200 nM
same,IC50,Cathepsin L2 [11],140 nM
same,IC50,Cathepsin L2 [12],460 nM
same,IC50,Procathepsin L [13],5 nM
same,IC50,Procathepsin L [14],47 nM
same,inhibition,Procathepsin L [14]; TDE = time-dependent effect,tde
same,inhibition,Procathepsin L [15],Dose-dependent effect
